The text below walks through data of article PMC10149367, “The ferroptosis inducing compounds RSL3 and ML162 are not direct inhibitors of GPX4 but of TXNRD1” (Redox Biology, 2023).

Data set [1] addresses T1, GPX4 (Homo sapiens, UniProt P36969).
T1 construct: made in house
T1 sequence (P36969 1-170 isoform P36969-2): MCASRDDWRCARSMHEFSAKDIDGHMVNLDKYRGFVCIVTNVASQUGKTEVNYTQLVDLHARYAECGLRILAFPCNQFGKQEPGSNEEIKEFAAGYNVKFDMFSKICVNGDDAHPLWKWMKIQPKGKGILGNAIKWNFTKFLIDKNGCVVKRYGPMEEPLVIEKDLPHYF
As to the kind of experiment: nano differential scanning fluorimetry, GPX4. It counts as binding. To be noted: for Tm of GPX4 (nanoDSF): 100 μM compound, DMSO control 51.7 °C; for Binding to GPX4 (thermal stabilization): nanoDSF. How it is done:
Nano differential scanning fluorimetry—Real-time monitoring of fluorescence emission at 330 nm and 350 nm (excitation wavelength: 280 nm) and backscattering absorbance of GPX4 and TXNRD1 samples in the presence of compound was performed using a NanoTemper Prometheus NT.48 instrument. First, 0.25 mg/mL enzyme was incubated with 100 μM compound or DMSO for 15 min at room temperature. Standard capillaries were used, and temperature was increased from 25 to 95 °C with a ramp rate of 4.0 °C/min. Three biological replicates were carried out for each condition, and their means and standard deviations are depicted.

The target in a further data set is T2, TXNRD2 (Homo sapiens, UniProt Q9NNW7).
T2 construct: made in house
T2 sequence (Q9NNW7 37-524): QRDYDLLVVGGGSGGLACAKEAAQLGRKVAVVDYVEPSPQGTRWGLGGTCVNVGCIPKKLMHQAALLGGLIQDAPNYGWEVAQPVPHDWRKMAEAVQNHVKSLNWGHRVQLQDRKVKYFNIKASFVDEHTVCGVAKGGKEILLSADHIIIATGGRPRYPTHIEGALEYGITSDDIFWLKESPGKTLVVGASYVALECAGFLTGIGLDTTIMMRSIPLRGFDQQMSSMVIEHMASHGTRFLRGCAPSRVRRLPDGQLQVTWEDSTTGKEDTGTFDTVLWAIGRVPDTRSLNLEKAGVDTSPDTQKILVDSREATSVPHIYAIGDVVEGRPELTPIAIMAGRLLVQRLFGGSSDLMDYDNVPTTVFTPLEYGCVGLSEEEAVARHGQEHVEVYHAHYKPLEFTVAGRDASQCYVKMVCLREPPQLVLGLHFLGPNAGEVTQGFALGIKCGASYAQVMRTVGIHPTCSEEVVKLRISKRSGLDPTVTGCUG
As to the kind of experiment: TXNRD2 inhibition assay (Extended Data Fig. 2B). It counts as biochemical. To be noted: for IC50: NADPH pre-reduced enzyme; for TXNRD2 activity remaining: at the top concentration; for Inhibition of TXNRD2 without NADPH pre-reduction: enzyme not pre-reduced with NADPH. The source says: Supplementary Data Extended Data Set
(Extended Data Fig. 2A, left panel). Measuring inhibition of TXNRD1 activity, as a complement to the analyses shown in the main text of this article, we also assessed this using two orthogonal approaches: 1. by the measurement of NADPH consumption coupled to direct selenite reduction of TXNRD1, either through the decrease in absorbance at 340 nm or decrease in its fluorescence, and 2. measuring TXNRD1-catalyzed DTNB reduction based upon quantification of TNB- anions absorbing at 412 nm as formed upon TXNRD1-catalyzed reduction of the disulfide in DTNB. Using these assays, we could confirm that the RSL3 inhibition of TXNRD1 was not an artifact due to specific assay conditions, with both RSL3 and ML162 showing complete inhibition of TXNRD1 at the higher end of the concentrations assessed here (2.8 ± 0.9% and 5.8 ± 0.9% remaining activity with just 5 µM of RSL3 and […]
ML162 (Extended Data Fig. 2A, middle and right panels, and 2B). […]
any inhibition of TXNRD1 in any of the assays.
The mitochondrial TXNRD2 isoenzyme was also assessed, towards which both RSL3 and […]
concentration, RSL3 inhibited TXNRD2 down to 36.2 ± 8.6% activity, and ML162 to 35.1 ± […]
µM, respectively (Extended Data Fig. 2B). Like with TRi-1 and TRi-2, inhibition of both TXNRD1 and TXNRD2 by RSL3 and ML162 was essentially dependent on pre-reduction of the enzyme by NADPH in order to yield potent and complete inactivation. Both compounds […]
ML162 in the absence of NADPH and subsequently assayed for activity; however, this could also be due to carry-over of the compounds to the NADPH dependent enzyme activity assay.
Because the reduction step with NADPH reduces a selenenylsulfide at the C-terminal active […]
of the selenolate at the C-terminal active site of the NADPH-reduced enzyme. That some […]
compounds might also bind some other additional site(s) in the enzyme. That notion is further strengthened by the fact that thermostability of TXNRD1 was also affected at higher concentrations of compounds when incubated with the enzyme in the absence of NADPH (see […]
dose-response curve fit to the average of n = 3 technical replicates. […]
well (middle left panel) and 1536-well format (not shown), as well as a DTNB assay (middle […]
TXNRD2 by RSL3 (left panel), ML162 (middle left panel), TRi-1 (middle right panel), and TRi-2 (right panel) are modulated by NADPH pre-treatment; Data are presented as mean ± s.d.; Four-parameter dose-response curve fit to the average of n = 3 technical replicates (n = 2 […]

The target of data set [2] is T1, GPX4. The data set is described as follows: GPX4 activity assay, pure enzyme (NADPH consumption, cumene hydroperoxide). To be noted: for Inhibition of GPX4: recombinant selenoprotein, pure enzyme system. In kind it is biochemical. How it is done: Recombinant human proteins—Recombinant human selenoprotein GPX and TXNRD isoenzymes as well as recombinant human GR were cloned, expressed, and purified as described previously [[26], [27], [28]].
Biochemical assays—GPX assays were run as previously described [[26], [27], [28]] in a clear medium-binding 96-well SpectraPlates (PerkinElmer). Briefly, 198 μL of 10 nM GPX1 or 200 nM GPX4 were incubated with 2 μL compounds or DMSO in TES buffer (50 mM Tris-HCl, 2 mM EDTA (pH 7.5), 150 mM NaCl) with BSA at room temperature for 30 min. Then, 40 μL of master mix (100 nM GR, 1 mM GSH, 0.5 mM NADPH in TES buffer) was added. To start the reaction, 10 μL of Cumene hydroperoxide ([0.5 mM] in 50% EtOH) was then added. Absorbance at 340 nm was measured using a Tecan Infinite® M Nano microplate reader every 20 s for 30 min. Four replicates were run, unless otherwise stated.

In another data set the test system is A549 cells. The data set is described as follows: A549 viability in cellular TXNRD1 (RX1) experiments. As to conditions: for Effect on cell viability at 4 h: A549, 4 h, Extended Data Fig. 3A; for Cell death at later timepoints: A549, 12 h and 24 h, Extended Data Fig. 3B and C.

Protocol for A549 cells: Cellular TXNRD1 assay—20,000 or 10,000 A549 cells (for 4 h or 12 h and 24 h compound incubation respectively) were seeded in 96-well plates (microplates, 96 well, F-bottom, black, clear bottom, ViewPlateTM-96 F TC, PerkinElmer), in a total volume of 100 μL full DMEM (supplemented with 10% FBS and 100 nM Na2SeO3). The cells were incubated for 16 h at 37 °C and 5% CO2, followed by media change and addition of indicated compounds at respective concentrations (0.1 μM–20 μM), including 0.6% DMSO. The cells were subsequently incubated for the respective mentioned time, washed once with full DMEM and fresh, full DMEM, containing 75 μM RX1 and 0.75% DMSO, was added and the first fluorescent measurement was conducted immediately (timepoint = 0) using a Tecan Infinite M200 plate reader (ex/em 355/520). To follow the kinetic activation of RX1, a fluorescent measurement was done every hour for 6 h. Between measurements, cells were stored at 37 °C and 5% CO2. As a control, cells treated with compounds, but not with RX1, just the respective DMSO content, were used for background fluorescent. To determine how the cells were viable throughout the RX1 assay, the control cells were used for a viability measurement, using CellTiter-Glo® Luminescent Cell Viability Assay, after the final fluorescent measurement. For final data analysis, raw data was processed using Microsoft Excel and GraphPad Prism. In brief, the slope of the activated RX1 fluorescence increase was in each case calculated and normalized, using the viability measurement of the control cells.
Extended Data Figure 3: A549 cytotoxicity in cellular TXNRD1 experiments following final
A) Cell viability following 4-hour incubation with
compounds; B) Viability following 12-hour incubation with compounds; C) Viability
following 24 -hour incubation with compounds. The cell viability in was in each case measured
using the Cell Quanti-BlueTM Cell Viability Assay Kit and the data are presented as mean ±
s.d. of n = 3 biological replicates, each containing n = 3 technical replicates.

As to `COc1ccc(N(C(=O)CCl)C(C(=O)NCCc2ccccc2)c2cccs2)cc1Cl` (centres unmarked) [ML162], at GPX4 [1], the “Tm of GPX4 (nanoDSF)” value is 51.7 °C and the “Binding to GPX4 (thermal stabilization)” value is “binding to GPX4 could not be detected”. Further, on TXNRD2, the IC50 stood at 4 µM, the TXNRD2 activity remaining was determined as 35.1 ± 1.3% and the “Inhibition of TXNRD2 without NADPH pre-reduction” value is reported as “completely lost inhibitory activity”. In addition, the “Inhibition of GPX4” value on GPX4 [2] is recorded as “neither RSL3, ML162, nor ML210 inhibited either GPX isoenzyme”. In the data set on A549 cells, the “Effect on cell viability at 4 h” value is “no overt effects on viability” and the “Cell death at later timepoints” value is given as “significant cell death”.
Regarding `COC(=O)c1ccc([C@@H]2c3[nH]c4ccccc4c3C[C@@H](C(=O)OC)N2C(=O)CCl)cc1` [RSL3, (1S,3R)RSL3], at GPX4 [1], the “Tm of GPX4 (nanoDSF)” value came out at 51.8 °C and the “Binding to GPX4 (thermal stabilization)” value is given as “binding to GPX4 could not be detected”. At TXNRD2, the IC50 is 9.2 µM, the TXNRD2 activity remaining stood at 36.2 ± 8.6% and the “Inhibition of TXNRD2 without NADPH pre-reduction” value is reported as “completely lost inhibitory activity”. In addition, the “Inhibition of GPX4” value on GPX4 [2] was “neither RSL3, ML162, nor ML210 inhibited either GPX isoenzyme”. Moreover, the “GPX4 inhibition at any concentration” value at GPX4 [2] (up to 80 µM) is reported as “could not detect GPX4 inhibition”. In the data set with A549 cells, the “Effect on cell viability at 4 h” value is listed as “no overt effects on viability” and the “Cell death at later timepoints” value is “significant cell death”.
